Laboratory results as given in patent publication US4820834A, “Benzodiazepine analogs” (priority 1987, dated 1989).
Structures can show the parent of a compound that is named as a salt. Where two headings read alike, the source gives them in different places.

Legend:
[1] = molecular target: T1, Gastrin receptor (gastric glands) (Cavia porcellus, UniProt H0VZC5); assay: Gastrin Receptor Binding in Guinea Pig Gastric Glands; design: species or system guinea pig (male Hartley); details: 25° C., 30 minutes
T1 construct: The washed guinea pig gastric glands prepared as above were resuspended; from tissue; host or cells: guinea pig gastric mucosal glands (male Hartley)
T1 sequence (H0VZC5 1-426): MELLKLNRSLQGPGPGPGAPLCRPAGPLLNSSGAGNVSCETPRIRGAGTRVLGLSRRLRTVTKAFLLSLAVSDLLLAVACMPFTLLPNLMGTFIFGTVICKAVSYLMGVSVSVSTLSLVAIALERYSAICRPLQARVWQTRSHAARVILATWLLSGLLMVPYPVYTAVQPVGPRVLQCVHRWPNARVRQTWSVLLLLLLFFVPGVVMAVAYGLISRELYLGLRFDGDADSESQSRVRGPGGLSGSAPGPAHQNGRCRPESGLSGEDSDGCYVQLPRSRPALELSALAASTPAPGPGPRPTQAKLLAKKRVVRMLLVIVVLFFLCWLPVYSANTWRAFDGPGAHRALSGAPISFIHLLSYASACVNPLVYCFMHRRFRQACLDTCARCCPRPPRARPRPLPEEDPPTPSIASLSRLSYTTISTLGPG

CCK receptor (pancreas) = molecular target: T2, CCK receptor (pancreas) (Rattus norvegicus, UniProt P30551); assay: CCK Receptor Binding (Pancreas): inhibition of ^125 I-CCK-33 binding; design: species or system Male Sprague-Dawley rats; details: rat pancreas membranes, ^125 I-CCK-33, 37° C., 30 minutes
T2 construct: The whole pancreas was dissected free of fat tissue and was homogenized; from tissue; host or cells: rat pancreas membranes (Sprague-Dawley)
T2 sequence (P30551 1-444): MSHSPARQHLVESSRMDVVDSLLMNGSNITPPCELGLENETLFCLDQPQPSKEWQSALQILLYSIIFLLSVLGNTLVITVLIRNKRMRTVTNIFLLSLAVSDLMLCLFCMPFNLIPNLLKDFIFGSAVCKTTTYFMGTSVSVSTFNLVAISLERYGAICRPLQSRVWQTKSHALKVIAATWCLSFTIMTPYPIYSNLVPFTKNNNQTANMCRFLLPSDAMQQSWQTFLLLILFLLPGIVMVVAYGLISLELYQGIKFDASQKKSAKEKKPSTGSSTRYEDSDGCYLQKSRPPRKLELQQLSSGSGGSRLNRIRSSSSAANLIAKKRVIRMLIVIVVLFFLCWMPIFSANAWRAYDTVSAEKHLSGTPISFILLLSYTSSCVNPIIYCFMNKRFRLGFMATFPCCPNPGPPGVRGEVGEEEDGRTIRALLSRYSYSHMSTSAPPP
Summary of the method: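 Bound ^125I-CCK-33 was counted in pellets after a 30 min, 37° C incubation followed by centrifugation. Membranes came from male Sprague-Dawley rat pancreas, assayed in Tris HCl pH 7.7 containing DTT, bacitracin, PMSF and o-phenanthroline. For Scatchard analysis, tracer was diluted with rising unlabelled CCK-33.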

[2] = molecular target: T3, CCK receptor (brain, cerebral cortex) (Cavia porcellus, UniProt H0VZC5); assay: biochemical; assay type: binding, Male Hartley guinea pigs; details: guinea pig cerebral cortex, ^125 I-CCK-33, 25° C., 2 hours
T3 construct: Cerebral cortex was dissected and used as a receptor source; from tissue; host or cells: guinea pig cerebral cortex membranes (male Hartley)
T3 sequence (H0VZC5 1-426): T1 sequence (H0VZC5 1-426)
Summary of the method: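 Binding of [radiolabeled] CCK-33 measured by gamma counting of centrifuged pellets after 2 h at 25°C. Membranes came from guinea pig brain cortex, suspended in 10 mM HEPES, 5 mM MgCl2, 1 mM EGTA, 0.25 mg/ml bacitracin, 0.4% BSA.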

[3] = IC50 ^125 I-Gastrin Gastric Glands
[4] = read-out: IC50 ^125 I-CCK Pancreas
[5] = ^125 I-gastrin, read-out: IC50 ^125 I-Gastrin Gastric Glands
[6] = read-out: IC50 ^125 I-CCK Brain

Compound | IC50 [1, 3] | IC50 (CCK receptor (pancreas); [4]) | IC50 ([2]; IC50 ^125 I-CCK Brain) | IC50 [1, 5] | IC50 (CCK receptor (pancreas); IC50 ^125 I-CCK Pancreas) | IC50 [2, 6]
CN1C(=O)C(NC(=O)Nc2ccc(Br)cc2)N=C(c2ccccc2)c2ccccc21 (stereo not drawn) [Example 255] | 32 nM | 130 nM | 48 nM | – | – | –
CN1C(=O)C(C(=O)Nc2ccc(Cl)cc2)N=C(c2ccccc2)c2ccccc21 (stereo not drawn) [Example 197, N-(4-Chlorphenyl)-2,3-dihydro-1-methyl-2-oxo-5-phenyl-1H-1,4-benzodiazepine-3-carboxamide] | – | – | – | 10000 nM | 1900 nM | 5900 nM
CN1C(=O)C(NC(=O)Nc2ccc([N+](=O)[O-])cc2)N=C(c2ccccc2)c2ccccc21 (stereo not drawn) [Example 256, N-(4-Nitrophenyl)-N'-(2,3-dihydro-1-methyl-2-oxo-5-phenyl-1H-1,4-benzodiazepin-3-yl)-urea] | – | 210 nM | – | 9.8 nM | – | 46 nM
COc1cccc(NC(=O)NC2N=C(c3ccccc3)c3cccc(C)c3NC2=O)c1 (stereo not drawn) [Example 288, N-(3-Methoxyphenyl)-N'-(2,3-dihydro-9-methyl-2-oxo-5-phenyl-1H-1,4-benzodiazepin-3-yl)-urea] | – | – | – | 54 nM | 75 nM | 42 nM
O=C1Nc2ccccc2C(c2ccccc2)=NC1Cc1c[nH]c2ccc(Br)cc12 (racemic) [Example 57, 3(RS)-[3'-(5'-Bromoindolyl)methyl]-1,3-dihydro-5-phenyl-2H-1,4-benzodiazepin-2-one] | 700000 nM | – | 100000 nM | – | 2900 nM | –
CCOC(=O)CN1C(=O)C(NC(=O)Nc2ccc(Cl)cc2)N=C(c2ccccc2)c2ccccc21 (stereo not drawn) [Example 204, 3-((((4-Chlorophenyl)amino)carbonyl)amino)-2,3-dihydro-2-oxo-5-phenyl-1H-1,4-benzodiazepine-1-acetic acid ethyl ester] | 3.3 nM | 370 nM | 1 nM | – | – | –
CN1C(=O)[C@@H](NC(=O)c2ccc(I)cc2)N=C(c2ccccc2F)c2ccccc21 [Example 159, 3(S)-(+)-1,3-Dihydro-5-(2-fluorophenyl)-3-(4-iodobenzoylamino)-1-methyl-2H-1,4-benzodiazepin-2-one] | – | – | 3000 nM | 530 nM | 3.4 nM | –
CN1CCN(C(=O)CN2C(=O)C(NC(=O)OCc3ccccc3)N=C(c3ccccc3)c3ccccc32)CC1 (stereo not drawn) [Example 235, (2,3-Dihydro-1-(2-(4-methyl-1-piperazinyl)-2-oxoethyl)-2-oxo-5-phenyl-1H-1,4-benzodiazepin-3-yl)-carbamic acid phenylmethyl ester] | – | – | – | 1400 nM | 29000 nM | 1700 nM
O=C(Nc1ccc(Cl)cc1)NC1N=C(c2ccccc2)c2ccccc2N(CC(=O)N2CCCC2)C1=O (stereo not drawn) [Example 236, 1-((3-((((4-Chlorophenyl)amino)carbonyl)amino)-2,3-dihydro-2-oxo-5-phenyl-1H-1,4-benzodiazepin-1-yl)acetyl)pyrrolidine] | – | 520 nM | – | 0.5 nM | – | 0.28 nM
CN1C(=O)C(NC(=O)Nc2ccc(Cl)cc2)N=C(c2ccccc2)c2ccccc21 (stereo not drawn) [Example 217] | – | 51 nM | 23 nM | 22 nM | – | –
CN1C(=O)[C@@H](Cc2c[nH]c3ccccc23)N=C(c2ccccc2)c2ccccc21 [Example 210, (R)-1,3-Dihydro-3-(1H-indol-3-ylmethyl)-1-methyl-5-phenyl-2H-1,4-benzodiazepin-2-one] | 21000 nM | – | 10000 nM | – | 300 nM | –
CC(C)(C)C(=O)OCOC(=O)CN1C(=O)C(NC(=O)c2cc3ccccc3[nH]2)N=C(c2ccccc2)c2ccccc21 (stereo not drawn) [Example 279, 1-Pivaloyloxymethyloxycarbonylmethyl-1,3-dihydro-3-(2-indolecarbonylamino)-5-phenyl-2H-1,4-benzodiazepin-2-one] | – | – | – | 600 nM | 11 nM | 310 nM
Cc1ccc(S(=O)(=O)NC(=O)NC2N=C(c3ccccc3)c3ccccc3N(C)C2=O)cc1 (stereo not drawn) [Example 248, N-(((2,3-Dihydro-1-methyl-2-oxo-5-phenyl-1H-1,4-benzodiazepin-3-yl)amino)carbonyl)-4-methylbenzenesulfonamide] | – | – | – | 2200 nM | 20000 nM | 5300 nM
CC(C)CC(N)C(=O)N1CC(CC2N=C(c3ccccc3)c3ccccc3NC2=O)c2ccccc21 (stereo not drawn) [Example 227, 1-(2-Amino-4-methyl-1-oxopentyl)-3-((2,3-dihydro-2-oxo-5-phenyl-1H-1,4-benzodiazepin-3-yl)methyl)-2,3-dihydro-1H-indole hydrochloride] | > 100000 nM | – | 50000 nM | – | 6600 nM | –
CN1C(=O)C(C(=O)c2ccsc2)=NC(O)(c2ccccc2)c2ccccc21 (racemic) [Example 53b, 1,5-Dihydro-5-(RS)-hydroxy-1-methyl-5-phenyl-3-(3'-thienoyl)-2H-1,4-benzodiazepin-2-one] | – | 19000 nM | – | > 100000 nM | – | 100000 nM
CN1C(=O)[C@@H](NC(=O)c2cccc(Br)c2)N=C(c2ccccc2F)c2ccccc21 [Example 154, 3(S)-(+)-3-(3-Bromobenzoylamino)-1,3-dihydro-5-(2-fluorophenyl)-1-methyl-2H-1,4-benzodiazepin-2-one] | – | 3.5 nM | 3500 nM | 500 nM | – | –
CN1C(=O)[C@@H](NC(=O)c2ccc(C#N)cc2)N=C(c2ccccc2F)c2ccccc21 [Example 162, 3(S)-(+)-3-(4-Cyanobenzoylamino)-1,3-dihydro-5-(2-fluorophenyl)-1-methyl-2H-1,4-benzodiazeoin-2-one] | – | 43 nM | 31000 nM | 9000 nM | – | –
CN1C(=O)[C@H](NC(=O)Nc2ccc(Cl)cc2)N=C(c2ccccc2)c2ccccc21 [Example 234, (R)-N-(4-Chlorophenyl)-N'-(2,3-dihydro-1-methyl-2-oxo-5-phenyl-1H-1,4-benzodiazepin-3-yl)-Urea] | – | 1100 nM | 5.5 nM | 12 nM | – | –
COc1cccc(NC(=O)NC2N=C(c3ccccc3)c3ccccc3NC2=S)c1 (stereo not drawn) [Example 280, N-(2,3-Dihydro-5-phenyl-2-thioxo-1H-1,4-benzodiazepin-3-yl)-N'-(3-methoxyphenyl)-urea] | 250 nM | – | 970 nM | – | 15 nM | –
COc1cccc(NC(=O)NC2N=C(c3ccccc3)c3ccccc3NC2=O)c1 (stereo not drawn) [Example 275, N-(2,3-Dihydro-2-oxo-5-phenyl-1H-1,4-benzodiazepin-3-yl)-N'-(3-methoxyphenyl)-urea] | 120 nM | – | 110 nM | – | 20 nM | –
CCOC(=O)CN1C(=O)C(NC(=O)Cc2ccc(Cl)cc2)N=C(c2ccccc2)c2ccccc21 (stereo not drawn) [Example 239, 3-(((4-Chlorophenyl)acetyl)amino)-2,3-dihydro-2-oxo-5-phenyl-1H-1,4-benzodiazepine-1-acetic acid ethyl ester] | – | – | – | 4.5 nM | 1700 nM | 38 nM
COc1ccccc1NC(=O)NC1N=C(c2ccccc2)c2ccccc2N(C)C1=O (stereo not drawn) [Example 278, N-(2,3-Dihydro-1-methyl-2-oxo-5-phenyl-1H-1,4-benzodiazepin-3-yl)-N'-(2-methoxyphenyl)-urea] | – | 600 nM | – | 1000 nM | – | 1200 nM
CN1C(=O)C(C(O)c2ccccc2)N=C(c2ccccc2)c2ccccc21 (racemic) [Example 51, 1,3-Dihydro-3(RS)-(1-hydroxy-1-phenyl)methyl-1-methyl-5-phenyl-2H-1,4-benzodiazepin-2-one] | – | – | – | 25000 nM | > 100000 nM | 32000 nM
